Measured values published in patent publication US7914776B2, “Solid dispersions of opioid antagonists” (Adolor Corporation, priority 2005, dated 2011).
Entries after “also recorded” stand apart in the source; their conditions may differ. Where two headings read alike, the source gives them in different places.

How the values were obtained:
[1] = Moisture sorption analysis; assay type: physicochemical; conditions: for XRPD after Moisture Sorption: solid remaining after moisture sorption analysis; for Moisture Sorption: weight lost upon desorption: between 95% and 5% RH
[2] = assay type: physicochemical
Description: Amorphous samples were exposed to ambient, 53%, and 97% relative humidities at ambient temperature (about 10° C. to about 30° C.). The samples were also exposed to 75% relative humidity at 40° C. The samples were stressed for up to 60 days. Samples were taken periodically throughout the study and analyzed by x-ray powder diffraction (XRPD) for presence of crystallinity.
Relative humidity stress studies were performed to assess the stability of amorphous alvimopan and solid dispersions. Studies were performed at ambient, 53%, and 97% relative humidity at ambient temperature. Ambient relative humidity and temperature was measured as approximately 24% and 22° C. Samples were also stressed at 75% relative humidity at 40° C. Samples were analyzed by XRPD for the presence of crystallinity.

[3] = Intrinsic dissolution experiments (Woods apparatus); assay type: physicochemical; conditions: approximately 37° C., 75 rpm, 900 mL medium, value (SD)
Description: Intrinsic dissolution experiments were conducted in a VanKel VK7010 dissolution apparatus equipped with a VK750A heater/circulator. An intrinsic dissolution apparatus (Woods apparatus) and hydraulic press were used to press samples of approximately 200 mg at approximately 1000 psi for 1 minute, giving a sample surface of 0.50 cm^2. Experiments were conducted in media of pH=1.2 HCl solution and pH =4.5 phosphate solution. 900 mL of medium was used for each experiment and the medium was maintained at approximately 37° C. The apparatus was rotated at 75 rpm. The Cary 50 UV/Vis spectrophotometer was utilized to sample automatically throughout the duration of the experiments.
Samples were analyzed with a Cary 50 UV-VIS double-beam spectrophotometer, and were analyzed in 1.000-cm quartz cuvettes at a wavelength of 271 nm. The detector was zeroed with a cuvette filled with dissolution medium prior to sample analysis. Wavelength calibration was performed using holmium oxide. The photometric accuracy was verified by measuring the intensity of the light at the detector when filters of known optical density were placed in the path of the beam.

[4] = Solubility in water (statement); assay type: physicochemical; conditions: statement in words, dihydrate
[5] = Bioavailability (statement); assay type: in vivo; conditions: statement in words, dihydrate
[6] = Conversion of amorphous form to crystalline dihydrate form (background statement); assay type: physicochemical
Excerpt: [[2(S)-[[4(R)-(3-hydroxyphenyl)-3(R),4-dimethyl-piperidinyl]methyl]-1-oxo-3-phenylpropyl]amino]acetic acid may exist in different crystalline forms, including hydrate forms, solvate forms and anhydrous form, and as an amorphous material. Above a relative humidity of about 15%, it exists in its crystalline dihydrate form. Below a relative humidity of about 15%, it exists in its anhydrous form. Amorphous [[2(S)-[[4(R)-(3-hydroxyphenyl)-3(R),4-dimethyl-piperidinyl]methyl]-1-oxo-3-phenylpropyl]amino]acetic acid is hygroscopic and converts to its crystalline dihydrate form when it is stressed, for example, at 54% relative humidity for 12 days or 75% relative humidity in the temperature range of about 40° C. to about 80° C. for three days. Under ambient conditions, amorphous [[2(S)-[[4(R)-(3-hydroxyphenyl)-3(R),4-dimethyl-piperidinyl]methyl]-1-oxo-3-phenylpropyl]amino]acetic acid completely converts to its crystalline dihydrate form after 66 days.

[7] = listed as Amorphous [[2(S)-[[4(R)-(3-hydroxyphenyl)-3(R),4-dimethyl-piperidinyl]methyl]-1-, sodium salt
[8] = ambient conditions (approximately 24% relative humidity and 22° C.), 43 days stressed
[9] = listed as Amorphous [[2(S)-[[4(R)-(3-hydroxyphenyl)-3(R),4-dimethyl-piperidinyl]methyl]-1-
[10] = 53% Relative Humidity and Ambient Temperature, 7 days stressed
[11] = 53% Relative Humidity and Ambient Temperature, 17 days stressed
[12] = 53% Relative Humidity and Ambient Temperature, 30 days stressed
[13] = 53% Relative Humidity and Ambient Temperature, 60 days stressed
[14] = 75% Relative Humidity and 40° C., 7 days stressed
[15] = 97% Relative Humidity and Ambient Temperature, 7 days stressed
[16] = ambient conditions (approximately 24% relative humidity and 22° C.), 7 days stressed
[17] = ambient conditions (approximately 24% relative humidity and 22° C.), 17 days stressed
[18] = ambient conditions (approximately 24% relative humidity and 22° C.), 30 days stressed
[19] = ambient conditions (approximately 24% relative humidity and 22° C.), 60 days stressed
[20] = listed as Amorphous Alvimopan Prepared by Rotary Evaporation
[21] = listed as rotary evaporated sample

With C[C@H]1CN(C[C@H](Cc2ccccc2)C(=O)NCC(=O)[O-])CC[C@@]1(C)c1cccc(O)c1.[Na+] [2:1 sodium carbonate attempt; lyophilized; 100° C. vac oven] [[[2(S)-[[4(R)-(3-hydroxyphenyl)-3(R),4-dimethyl-piperidinyl]methyl]-1-oxo-3-phenylpropyl]amino]acetic acid sodium salt] the “Moisture Sorption: lost upon equilibration at 5% RH” value (from here on “Moisture Sorption … at 5% RH”) [1, 7] was 0.1% lost upon equilibration at 5% RH, the “XRPD after Moisture Sorption” value [1, 7] was “deliquescence of the material; also recorded: sample deliquesced” and the “XRPD Result” value ([2]; 53% Relative Humidity and Ambient Temperature, 13 days stressed) was “amorphous”. For the same compound, the “XRPD Result” value ([2]; 53% Relative Humidity and Ambient Temperature, 43 days stressed) was “amorphous”, the Observation ([2]; 75% Relative Humidity and 40° C., 3 days stressed, sodium salt) was “deliquescence;” and the “Outcome of stress” value ([2]; 97% relative humidity and ambient temperature, listed as 2:1 amorphous [[2(S)-[[4(R)-(3-hydroxyphenyl)-3(R),4-dimethyl-piperidinyl]methyl, sodium salt) was “deliquesced within three days of exposure”. The Observation ([2]; ambient conditions (approximately 24% relative humidity and 22° C.), 7 days stressed, sodium salt) was “off-white, yellow”, the “XRPD Result” value ([2]; ambient conditions (approximately 24% relative humidity and 22° C.), 13 days stressed) was “amorphous + peak” and the “XRPD Result” value ([2]; ambient conditions (approximately 24% relative humidity and 22° C.), 30 days stressed, sodium salt) was “amorphous + peak;”. The Observation [2, 8] was “white and yellow” and the “XRPD Result” value [2, 8] was “amorphous + peak”.
For C[C@H]1CN(C[C@H](Cc2ccccc2)C(=O)NCC(=O)O)CC[C@@]1(C)c1cccc(O)c1 [crystalline alvimopan, [[2(S)-[[4(R)-(3-hydroxyphenyl)-3(R),4-dimethyl-1-piperidinyl]methyl]-1-oxo-3-phenylpropyl]amino]acetic acid dihydrate], the “Intrinsic Dissolution Rate, mg/min/cm^2 (SD), pH 1.2 HCl” value [3] was 0.148 (0.025) mg/min/cm^2, the solubility in water ([4]; listed as Alvimopan) was “extremely low solubility in water” and the solubility in water ([4]; listed as alvimopan) was “lower solubility in water than amorphous”. The solubility in water ([4]; listed as compound of formula (II)) was “low solubility in water except at low or high pH conditions”, the bioavailability ([5]; listed as Alvimopan) was “poor oral bioavailability” and the bioavailability ([5]; listed as alvimopan) was “lower bioavailability than the amorphous form”.
For C[C@H]1CN(C[C@H](Cc2ccccc2)C(=O)NCC(=O)O)CC[C@@]1(C)c1cccc(O)c1 [lyophilized; 100° C. vac oven, [[2(S)-[[4(R)-(3-hydroxyphenyl)-3(R),4-dimethyl-piperidinyl]methyl]-1-oxo-3-phenylpropyl]amino]acetic acid], the “Moisture Sorption: weight gain between 5% and 95% RH” value [1, 9] was 13.0% weight gain between 5% and 95% RH, the “Moisture Sorption: weight gain between 5% and 95% RH” value ([1]; listed as lyophilized sample) was roughly 13% and the “Moisture Sorption: weight lost upon desorption” value [1, 9] was 10.8% weight lost upon desorption. The “Moisture Sorption … at 5% RH” value [1, 9] was 0.2% lost upon equilibration at 5% RH, the “XRPD after Moisture Sorption” value [1, 9] was “amorphous” and the “XRPD after Moisture Sorption” value ([1]; listed as lyophilized sample) was “remained amorphous”. The “Stability conclusion of the stress studies” value (shortened to “Stability conclusion”) [2] was “stable at 75% relative humidity and 40 °C”, the “XRPD Result” value [2, 10] was “amorphous” and the “XRPD Result” value [2, 11] was “amorphous”. For the same compound, the “XRPD Result” value [2, 12] was “amorphous”, the “XRPD Result” value [2, 13] was “amorphous” and the “Outcome of stress” value ([2]; 75% RH and 40° C., listed as amorphous alvimopan sample prepared by lyophilization) was “Crystallization was not observed”. For the same compound, the “XRPD Result” value [2, 14] was “amorphous”, the “XRPD Result” value ([2]; 75% Relative Humidity and 40° C., 17 days stressed) was “amorphous” and the “XRPD Result” value ([2]; 75% Relative Humidity and 40° C., 30 days stressed) was “amorphous”. For the same compound, the “XRPD Result” value ([2]; 75% Relative Humidity and 40° C., 60 days stressed) was “amorphous”, the Observation [2, 15] was “off-white solids; some” and the “XRPD Result” value [2, 15] was “Form A”. For the same compound, the “XRPD Result” value [2, 16] was “amorphous”, the “XRPD Result” value [2, 17] was “amorphous” and the “XRPD Result” value [2, 18] was “amorphous”. For the same compound, the “XRPD Result” value [2, 19] was “amorphous”.
In the case of C[C@H]1CN(C[C@H](Cc2ccccc2)C(=O)NCC(=O)O)CC[C@@]1(C)c1cccc(O)c1 [ethanol roto evap at 30° C.; 100° C. vac oven] [[[2(S)-[[4(R)-(3-hydroxyphenyl)-3(R),4-dimethyl-piperidinyl]methyl]-1-oxo-3-phenylpropyl]amino]acetic acid], the “Moisture Sorption: weight gain between 5% and 95% RH” value [1, 20] is reported as 13.8% weight gain between 5% and 95% RH, the “Moisture Sorption: weight gain between 5% and 95% RH” value [1, 21] is reported as roughly 13% and the “Moisture Sorption: weight lost upon desorption” value [1, 20] is reported as 12.2% weight lost upon desorption. For the same compound, the “Moisture Sorption … at 5% RH” value [1, 20] was 0.6% lost upon equilibration at 5% RH, the “XRPD after Moisture Sorption” value [1, 20] was “low crystalline; amorphous, Form A, or Form B” and the “XRPD after Moisture Sorption” value [1, 21] was “crystallized to low crystalline material”. The “Stability conclusion” value [2] was “showed crystallization under this same stress condition”, the “XRPD Result” value [2, 10] was “amorphous” and the “XRPD Result” value [2, 11] was “amorphous”. The “XRPD Result” value [2, 12] was “amorphous”, the Observation [2, 13] was “white solids,” and the “XRPD Result” value [2, 13] was “amorphous”. For the same compound, the “Outcome of stress” value ([2]; 75% RH and 40° C., listed as Amorphous [[2(S)-[[4(R)-(3-hydroxyphenyl)-3(R),4-dimethyl-piperidinyl]methyl]-1-) was “crystallized to alvimopan Form A”, the Observation [2, 14] was “white solids;” and the “XRPD Result” value [2, 14] was “PC; Form A”. The Observation [2, 15] was “white solids; some”, the “XRPD Result” value [2, 15] was “Form A” and the “XRPD Result” value [2, 16] was “amorphous”. For the same compound, the “XRPD Result” value [2, 17] was “amorphous”, the Observation [2, 18] was “white solids, flakes;” and the “XRPD Result” value [2, 18] was “amorphous”. The “XRPD Result” value [2, 19] was “amorphous”.
With C[C@H]1CN(C[C@H](Cc2ccccc2)C(=O)NCC(=O)[O-])CC[C@@]1(C)c1cccc(O)c1.[Na+] [[[2(S)-[[4(R)-(3-hydroxyphenyl)-3(R),4-dimethyl-piperidinyl]methyl]-1-oxo-3-phenylpropyl]amino]acetic acid sodium salt] the “Moisture Sorption … at 5% RH” value [1] was 2.8% lost upon equilibration at 5% RH, the “XRPD after Moisture Sorption” value [1, 7] was “peak + amorphous” and the “XRPD Result” value [2, 10] was “amorphous + peak”. The “XRPD Result” value [2, 11] was “amorphous + peak”, the “XRPD Result” value [2, 12] was “amorphous + peak” and the “XRPD Result” value [2, 13] was “amorphous + peak”. For the same compound, the “Outcome of stress” value ([2]; 75% RH and 40° C.) was “deliquesced after three days of exposure”, the Observation [2, 15] was “white solids; slight” and the “XRPD Result” value [2, 15] was “Form A”. The “Outcome of stress” value ([2]; 97% relative humidity and ambient temperature) was “likely crystallized to Form A”, the “XRPD Result” value [2, 16] was “amorphous + peak” and the Observation [2, 17] was “off-white, yellow”. For the same compound, the “XRPD Result” value [2, 17] was “amorphous + peak”, the Observation [2, 18] was “off-white, yellow” and the “XRPD Result” value [2, 18] was “amorphous + peak”.
With C[C@H]1CN(C[C@H](Cc2ccccc2)C(=O)NCC(=O)O)CC[C@@]1(C)c1cccc(O)c1 [amorphous preparation, [[2(S)-[[4(R)-(3-hydroxyphenyl)-3(R),4-dimethyl-piperidinyl]methyl]-1-oxo-3-phenylpropyl]amino]acetic acid] the “Intrinsic Dissolution Rate, mg/min/cm^2 (SD), pH 1.2 HCl” value [3] was 0.217 (0.017) mg/min/cm^2, the “Stability conclusion” value [2] was “stable under stress conditions except at 97% relative humidity” and the “time stressed after which amorphous form converts to its crystalline dihydrate form” value ([6]; 54% relative humidity) was 12 days. The “time stressed after which amorphous form converts to its crystalline dihydrate form” value ([6]; 75% relative humidity, about 40° C. to about 80° C.) was “three days” and the “time after which amorphous form completely converts to its crystalline dihydrate form” value ([6]; ambient conditions) was 66 days.
